Data as given in patent US9062124B2, “GIP-based mixed agonists for treatment of metabolic disorders and obesity” (priority 2008, dated 2015).
Where a SMILES comes first, the peptide text is derived from it. Bridges are numbered along the chain shown (N, C = ends). The star is where a group is joined. Bz = O=C(c1ccccc1)*

Key:
Type in all cases: cell-based
glucagon receptor = target: T1, glucagon receptor (Homo sapiens, UniProt P47871); experiment: cAMP synthesis functional assay (firefly luciferase reporter in HEK293 cells), glucagon receptor; details: Table 1; for Glucagon Receptor relative activity: relative to the native hormone of the indicated receptor
T1 construct: expressed in transfected cells; host or cells: HEK293
T1 sequence (P47871 26-477): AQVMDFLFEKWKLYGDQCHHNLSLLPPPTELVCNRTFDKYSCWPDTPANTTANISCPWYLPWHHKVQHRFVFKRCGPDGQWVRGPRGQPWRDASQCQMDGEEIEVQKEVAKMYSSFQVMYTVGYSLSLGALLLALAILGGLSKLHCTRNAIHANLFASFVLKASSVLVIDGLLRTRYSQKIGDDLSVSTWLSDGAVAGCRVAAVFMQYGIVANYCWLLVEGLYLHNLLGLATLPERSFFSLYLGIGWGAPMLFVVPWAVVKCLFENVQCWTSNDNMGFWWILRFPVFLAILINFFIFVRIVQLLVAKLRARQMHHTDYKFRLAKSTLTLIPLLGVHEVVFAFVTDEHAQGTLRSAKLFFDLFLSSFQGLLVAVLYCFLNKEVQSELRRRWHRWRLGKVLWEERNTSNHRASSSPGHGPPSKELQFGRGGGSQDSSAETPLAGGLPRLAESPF

GIP receptor = target: T2, GIP receptor (Homo sapiens, UniProt P48546); experiment: cAMP synthesis functional assay (firefly luciferase reporter in HEK293 cells), GIP receptor; details: Table 1; relative to the native hormone of the indicated receptor
T2 construct: expressed in transfected cells; host or cells: HEK293
T2 sequence (P48546 22-466): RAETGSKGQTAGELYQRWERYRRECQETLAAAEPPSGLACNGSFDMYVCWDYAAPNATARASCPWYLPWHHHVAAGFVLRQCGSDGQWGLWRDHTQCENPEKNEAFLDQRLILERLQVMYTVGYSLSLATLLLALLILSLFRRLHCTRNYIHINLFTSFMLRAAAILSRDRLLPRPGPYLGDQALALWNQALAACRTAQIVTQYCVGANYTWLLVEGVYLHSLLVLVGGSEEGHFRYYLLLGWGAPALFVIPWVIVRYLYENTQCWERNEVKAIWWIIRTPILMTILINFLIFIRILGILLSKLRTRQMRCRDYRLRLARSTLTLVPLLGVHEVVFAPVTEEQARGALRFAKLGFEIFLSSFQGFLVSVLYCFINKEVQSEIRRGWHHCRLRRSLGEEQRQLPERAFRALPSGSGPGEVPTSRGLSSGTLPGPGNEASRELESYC

GLP-1 receptor = target: T3, GLP-1 receptor (Homo sapiens, UniProt P43220); experiment: cAMP synthesis functional assay (firefly luciferase reporter in HEK293 cells), GLP-1 receptor; details: Table 1; relative to the native hormone of the indicated receptor
T3 construct: expressed in transfected cells; host or cells: HEK293
T3 sequence (P43220 24-463, species assumed): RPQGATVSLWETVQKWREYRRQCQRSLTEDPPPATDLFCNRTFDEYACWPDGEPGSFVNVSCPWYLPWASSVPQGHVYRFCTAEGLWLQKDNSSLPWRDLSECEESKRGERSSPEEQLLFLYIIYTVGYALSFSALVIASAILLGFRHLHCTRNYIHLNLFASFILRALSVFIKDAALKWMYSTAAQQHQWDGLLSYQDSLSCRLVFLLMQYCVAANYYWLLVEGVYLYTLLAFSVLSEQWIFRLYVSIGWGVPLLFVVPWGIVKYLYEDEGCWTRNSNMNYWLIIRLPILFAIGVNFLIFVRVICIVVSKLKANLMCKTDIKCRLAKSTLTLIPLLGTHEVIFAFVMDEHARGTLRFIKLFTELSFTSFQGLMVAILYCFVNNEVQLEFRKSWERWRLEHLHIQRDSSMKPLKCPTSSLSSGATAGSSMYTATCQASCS

Structure (SMILES): CC[C@H](C)[C@H](NC(=O)[C@H](Cc1ccccc1)NC(=O)[C@@H](NC(=O)CNC(=O)[C@H](CCC(N)=O)NC(=O)[C@H](C)NC(=O)[C@@H](N)Cc1ccc(O)cc1)[C@@H](C)O)C(=O)N[C@@H](CO)C(=O)N[C@@H](CC(=O)O)C(=O)N[C@@H](Cc1ccc(O)cc1)C(=O)N[C@@H](CO)C(=O)N[C@@H](CCCCN)C(=O)N[C@@H](Cc1ccc(O)cc1)C(=O)N[C@@H](CC(C)C)C(=O)N[C@@H](CC(=O)O)C(=O)N[C@H]1CCC(=O)NCCCC[C@@H](C(=O)N[C@@H](CCC(=O)O)C(=O)N[C@@H](Cc2ccccc2)C(=O)N[C@H](C(=O)N[C@@H](CC(N)=O)C(=O)N[C@@H](Cc2c[nH]c3ccccc23)C(=O)N[C@@H](CC(C)C)C(=O)N[C@@H](CC(C)C)C(=O)N[C@@H](C)C(=O)NCC(=O)NCC(=O)N2CCC[C@H]2C(=O)N[C@@H](CO)C(=O)N[C@@H](CO)C(=O)NCC(=O)N[C@@H](C)C(=O)N2CCC[C@H]2C(=O)N2CCC[C@H]2C(=O)N2CCC[C@H]2C(=O)N[C@@H](CO)C(N)=O)C(C)C)NC(=O)[C@H](C)NC(=O)[C@H](C)NC(=O)[C@H](CCC(N)=O)NC1=O [mt-146] (H-YAQGTFISDYSKYLDEQAAKEFVNWLLAGGPSSGAPPPS-NH2; lactam 16-20; N-terminus assumed)
- Glucagon Receptor relative activity (glucagon receptor): 480.00%
- GIP Receptor relative activity (GIP receptor): 13.30%
- GLP-1 Receptor relative activity (GLP-1 receptor): 0.25%

Structure (SMILES): CC[C@H](C)[C@H](NC(=O)[C@H](CO)NC(=O)[C@H](Cc1ccc(O)cc1)NC(=O)[C@H](CC(=O)O)NC(=O)[C@H](CO)NC(=O)[C@@H](NC(=O)[C@H](Cc1ccccc1)NC(=O)[C@@H](NC(=O)CNC(=O)[C@H](CCC(N)=O)NC(=O)[C@H](CO)NC(=O)[C@@H](N)Cc1ccc(O)cc1)[C@@H](C)O)[C@@H](C)CC)C(=O)N[C@@H](Cc1ccc(O)cc1)C(=O)N[C@@H](CC(C)C)C(=O)N[C@@H](CC(=O)O)C(=O)N[C@H]1CCC(=O)NCCCC[C@@H](C(=O)N[C@@H](CCC(=O)O)C(=O)N[C@@H](Cc2ccccc2)C(=O)N[C@H](C(=O)N[C@@H](CC(N)=O)C(=O)N[C@@H](Cc2c[nH]c3ccccc23)C(=O)N[C@@H](CC(C)C)C(=O)N[C@@H](CC(C)C)C(=O)N[C@@H](C)C(=O)NCC(=O)NCC(=O)N2CCC[C@H]2C(=O)N[C@@H](CO)C(=O)N[C@@H](CO)C(=O)NCC(=O)N[C@@H](C)C(=O)N2CCC[C@H]2C(=O)N2CCC[C@H]2C(=O)N2CCC[C@H]2C(=O)N[C@@H](CO)C(N)=O)C(C)C)NC(=O)[C@H](C)NC(=O)[C@H](C)NC(=O)[C@H](CCC(N)=O)NC1=O [mt-150] (H-YSQGTFISDYSIYLDEQAAKEFVNWLLAGGPSSGAPPPS-NH2; lactam 16-20; N-terminus assumed)
- Glucagon Receptor relative activity (glucagon receptor): 316.67%
- GIP Receptor relative activity (GIP receptor): 26.72%
- GLP-1 Receptor relative activity (GLP-1 receptor): 1.09%

Structure (SMILES): CC[C@H](C)[C@H](NC(=O)[C@H](CO)NC(=O)[C@H](Cc1ccc(O)cc1)NC(=O)[C@H](CC(=O)O)NC(=O)[C@H](CO)NC(=O)[C@@H](NC(=O)[C@H](Cc1ccccc1)NC(=O)[C@@H](NC(=O)CNC(=O)[C@H](CCC(N)=O)NC(=O)[C@H](CO)NC(=O)CNC(=O)c1ccccc1)[C@@H](C)O)[C@@H](C)O)C(=O)N[C@@H](Cc1ccc(O)cc1)C(=O)N[C@@H](CC(C)C)C(=O)N[C@@H](CC(=O)O)C(=O)N[C@H]1CCC(=O)NCCCC[C@@H](C(=O)N[C@@H](CCC(=O)O)C(=O)N[C@@H](Cc2ccccc2)C(=O)N[C@H](C(=O)N[C@@H](CC(N)=O)C(=O)N[C@@H](Cc2c[nH]c3ccccc23)C(=O)N[C@@H](CC(C)C)C(=O)N[C@@H](CC(C)C)C(=O)N[C@@H](C)C(=O)NCC(=O)NCC(=O)N2CCC[C@H]2C(=O)N[C@@H](CO)C(=O)N[C@@H](CO)C(=O)NCC(=O)N[C@@H](C)C(=O)N2CCC[C@H]2C(=O)N2CCC[C@H]2C(=O)N2CCC[C@H]2C(=O)N[C@@H](CO)C(N)=O)C(C)C)NC(=O)[C@H](C)NC(=O)[C@H](C)NC(=O)[C@H](CCC(N)=O)NC1=O [mt-154] (Bz-GSQGTFTSDYSIYLDEQAAKEFVNWLLAGGPSSGAPPPS-NH2; lactam 16-20)
- Glucagon Receptor relative activity (glucagon receptor): 7.40%
- GIP Receptor relative activity (GIP receptor): 1.07%
- GLP-1 Receptor relative activity (GLP-1 receptor): 0.70%

Structure (SMILES): CC(C)C[C@H](NC(=O)[C@H](CC(C)C)NC(=O)[C@H](Cc1c[nH]c2ccccc12)NC(=O)[C@H](CC(N)=O)NC(=O)[C@@H](NC(=O)[C@H](Cc1ccccc1)NC(=O)[C@H](CCC(=O)O)NC(=O)[C@H](CCCCN)NC(=O)[C@H](C)NC(=O)[C@H](C)NC(=O)[C@H](CCC(N)=O)NC(=O)[C@@H]1CCC(=O)NCCCC[C@H](NC(=O)[C@H](CO)NC(=O)[C@H](Cc2ccc(O)cc2)NC(=O)[C@H](CC(=O)O)NC(=O)[C@H](CO)NC(=O)[C@@H](NC(=O)[C@H](Cc2ccccc2)NC(=O)[C@@H](NC(=O)CNC(=O)[C@H](CCC(N)=O)NC(=O)[C@H](CO)NC(=O)[C@@H](N)Cc2ccc(O)cc2)[C@@H](C)O)[C@@H](C)O)C(=O)N[C@@H](Cc2ccc(O)cc2)C(=O)N[C@@H](CC(C)C)C(=O)N[C@@H](CC(=O)O)C(=O)N1)C(C)C)C(=O)N[C@@H](C)C(=O)NCC(=O)NCC(=O)N1CCC[C@H]1C(=O)N[C@@H](CO)C(=O)N[C@@H](CO)C(=O)NCC(=O)N[C@@H](C)C(=O)N1CCC[C@H]1C(=O)N1CCC[C@H]1C(=O)N1CCC[C@H]1C(=O)N[C@@H](CO)C(N)=O [mt-155] (H-YSQGTFTSDYSKYLDEQAAKEFVNWLLAGGPSSGAPPPS-NH2; lactam 12-16; N-terminus assumed)
- EC50 (glucagon receptor; Glucagon Receptor EC50, nM): 1.28 nM
- Glucagon Receptor relative activity (glucagon receptor): 10.93%
- GIP Receptor relative activity (GIP receptor): 7.02%
- GLP-1 Receptor relative activity (GLP-1 receptor): 98.99%

Structure (SMILES): CC[C@H](C)[C@H](NC(=O)[C@H](CO)NC(=O)[C@H](Cc1ccc(O)cc1)NC(=O)[C@H](CC(=O)O)NC(=O)[C@H](CO)NC(=O)[C@@H](NC(=O)[C@H](Cc1ccccc1)NC(=O)[C@@H](NC(=O)CNC(=O)[C@H](CCC(N)=O)NC(=O)[C@H](CO)NC(=O)[C@@H](N)Cc1ccc(O)cc1)[C@@H](C)O)[C@@H](C)O)C(=O)N[C@@H](Cc1ccc(O)cc1)C(=O)N[C@@H](CC(C)C)C(=O)N[C@@H](CC(=O)O)C(=O)N[C@@H](CCC(=O)O)C(=O)N[C@@H](CCC(N)=O)C(=O)N[C@@H](C)C(=O)N[C@@H](C)C(=O)N[C@H]1CCCCNC(=O)CC[C@@H](C(=O)N[C@@H](Cc2c[nH]c3ccccc23)C(=O)N[C@@H](CC(C)C)C(=O)N[C@@H](CC(C)C)C(=O)N[C@@H](C)C(=O)NCC(=O)NCC(=O)N2CCC[C@H]2C(=O)N[C@@H](CO)C(=O)N[C@@H](CO)C(=O)NCC(=O)N[C@@H](C)C(=O)N2CCC[C@H]2C(=O)N2CCC[C@H]2C(=O)N2CCC[C@H]2C(=O)N[C@@H](CO)C(N)=O)NC(=O)[C@H](C(C)C)NC(=O)[C@H](Cc2ccccc2)NC(=O)[C@H](CCC(=O)O)NC1=O [mt-156] (H-YSQGTFTSDYSIYLDEQAAKEFVEWLLAGGPSSGAPPPS-NH2; lactam 20-24; N-terminus assumed)
- Glucagon Receptor relative activity (glucagon receptor): 6.10%
- GIP Receptor relative activity (GIP receptor): 4.41%
- GLP-1 Receptor relative activity (GLP-1 receptor): 12.20%
